One data set addresses T1, Human EphA6 (Homo sapiens, UniProt Q9UF33).
T1 construct: purchased R&D Systems 5606-A6
T1 sequence (Q9UF33 23-1036): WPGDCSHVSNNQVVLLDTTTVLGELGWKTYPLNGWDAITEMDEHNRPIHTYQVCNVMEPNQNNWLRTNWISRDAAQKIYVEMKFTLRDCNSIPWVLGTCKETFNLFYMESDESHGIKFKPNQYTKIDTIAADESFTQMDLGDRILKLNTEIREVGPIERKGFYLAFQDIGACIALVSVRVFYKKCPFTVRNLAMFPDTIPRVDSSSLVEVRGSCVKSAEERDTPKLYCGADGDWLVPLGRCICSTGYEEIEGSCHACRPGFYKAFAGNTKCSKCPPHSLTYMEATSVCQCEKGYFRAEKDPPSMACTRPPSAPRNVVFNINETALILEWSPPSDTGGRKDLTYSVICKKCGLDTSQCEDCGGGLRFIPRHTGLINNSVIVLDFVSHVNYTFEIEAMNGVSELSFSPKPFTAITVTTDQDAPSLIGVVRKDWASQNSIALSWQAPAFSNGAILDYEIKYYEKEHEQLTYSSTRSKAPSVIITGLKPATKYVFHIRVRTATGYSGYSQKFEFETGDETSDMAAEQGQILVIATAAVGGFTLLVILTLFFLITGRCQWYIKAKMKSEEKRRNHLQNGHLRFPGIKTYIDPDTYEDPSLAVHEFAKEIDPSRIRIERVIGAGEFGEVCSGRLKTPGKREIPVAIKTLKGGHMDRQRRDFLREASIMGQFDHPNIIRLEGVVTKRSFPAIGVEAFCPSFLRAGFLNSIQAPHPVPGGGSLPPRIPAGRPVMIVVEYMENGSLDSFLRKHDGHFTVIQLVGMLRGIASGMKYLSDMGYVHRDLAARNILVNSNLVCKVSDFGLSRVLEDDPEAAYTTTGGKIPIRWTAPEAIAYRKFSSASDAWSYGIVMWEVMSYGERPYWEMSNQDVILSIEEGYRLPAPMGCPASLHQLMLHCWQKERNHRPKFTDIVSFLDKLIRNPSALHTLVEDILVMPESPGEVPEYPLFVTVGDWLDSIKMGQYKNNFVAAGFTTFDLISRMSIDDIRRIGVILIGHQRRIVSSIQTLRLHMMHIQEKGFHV
The experiment in a line: SPR homologue panel, EphA6. Conditions: human EphA6, n=1; read-out: KD, no binding up to. As for the experimental part:
(§1) The commercial source details of the recombinant proteins used in SPR were as follows: Human proteins: EphA1 (15789-H02H, Sino Biological), EphA3 (644-A3, R&D Systems), EphA6 (5606-A6, R&D Systems), EphA7 (6756-A7, R&D Systems). Mouse proteins: Mouse EphA2 was purchased from R&D Systems (Product number 639-A2). Mouse EphA2-Fc was resuspended as per manufacturer's recommendations and material was passed through a SuperdexS200 column to remove aggregates.
(§2) SPR experiments were performed on a Biacore 8K+ (Cytiva Life Sciences, USA) instrument, with methods matched for both human and mouse EphA2 protein. Protein was captured on to a Cytiva NTA sensor chip (Cytiva Life Sciences), via the expressed His-tag; this was followed by primary amine coupling chemistry to covalently immobilize the protein to the chip at 25°C. Initially the surface was injected with 0.5 mM NiCl2 for 2 minutes, followed by activation of the carboxymethyl dextran surface for 7 minutes using an injection of a 1:1 ratio of 0.4 M 1-ethyl-3-(3-dimethylaminopropyl) carbodiimide hydrochloride (EDC)/0.1 M N-hydroxy succinimide (NHS) at a flow rate of 10 µL/min.
(§3) Peptide was prepared in PBS/0.05% Tween 20 with a final DMSO concentration of 0.5%. The top peptide concentration was 100 or 500 nM and 5 further 3-fold dilutions. […]

A further data set deals with T2, Human EphA7 (Homo sapiens, UniProt Q15375).
T2 construct: purchased R&D Systems 6756-A7
T2 sequence (Q15375 28-998): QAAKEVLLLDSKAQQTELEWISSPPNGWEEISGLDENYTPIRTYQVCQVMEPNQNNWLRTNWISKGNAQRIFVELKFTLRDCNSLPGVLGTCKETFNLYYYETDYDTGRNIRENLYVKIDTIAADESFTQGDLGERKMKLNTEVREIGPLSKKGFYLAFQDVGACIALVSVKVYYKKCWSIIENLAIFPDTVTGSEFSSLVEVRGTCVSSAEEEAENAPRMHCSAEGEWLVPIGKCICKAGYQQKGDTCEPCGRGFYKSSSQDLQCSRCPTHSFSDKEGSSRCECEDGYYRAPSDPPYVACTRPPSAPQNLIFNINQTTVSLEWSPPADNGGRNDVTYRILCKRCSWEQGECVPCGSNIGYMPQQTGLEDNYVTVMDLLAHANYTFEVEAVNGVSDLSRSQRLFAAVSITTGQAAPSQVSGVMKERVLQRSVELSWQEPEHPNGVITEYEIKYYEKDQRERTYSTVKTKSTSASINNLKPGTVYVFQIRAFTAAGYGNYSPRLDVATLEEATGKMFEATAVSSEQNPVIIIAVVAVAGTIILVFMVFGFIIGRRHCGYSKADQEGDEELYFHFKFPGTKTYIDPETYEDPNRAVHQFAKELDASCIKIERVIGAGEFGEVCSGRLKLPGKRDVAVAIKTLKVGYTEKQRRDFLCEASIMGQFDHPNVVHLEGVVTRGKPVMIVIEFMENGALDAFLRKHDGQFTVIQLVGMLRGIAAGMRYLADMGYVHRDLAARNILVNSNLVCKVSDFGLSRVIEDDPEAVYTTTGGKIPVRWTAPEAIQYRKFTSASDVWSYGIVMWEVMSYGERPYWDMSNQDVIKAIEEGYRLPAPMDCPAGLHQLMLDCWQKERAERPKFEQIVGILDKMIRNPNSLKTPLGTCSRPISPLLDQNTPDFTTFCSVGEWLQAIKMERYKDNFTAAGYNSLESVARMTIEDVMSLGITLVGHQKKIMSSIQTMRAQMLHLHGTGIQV
Nature of the data set: SPR homologue panel, EphA7. Conditions: human EphA7, n=1; read-out: KD, no binding up to. The procedure:
as §1, §2, §3

The next data set is described as follows: in vitro. The format is in vitro ADME. Conditions: plasma. The procedure:
To determine binding to plasma proteins, BCY18469 was labeled with ^68Ga (apparent molar activity 1 GBq/µmol). Thereafter, 10 µL of the labeling mixture were added to 100 µL of mouse or human plasma (mouse: BioIVT, United Kingdom, human: Sigma Aldrich, Germany). The mixture was left for 15 min at room temperature. Afterwards, the plasma was loaded into an ultrafiltration device (Amicon Ultra 0.5ml - 30 kDa, Merck, Germany) and centrifuged at 14,000 rpm for 30 min at r.t. The filtrate and the membrane were measured in a gamma counter (Wizard2, Perkin Elmer, Germany). The amount of plasma-bound compound was calculated based on the counts in the […] relative to the total counts (filtrate + membrane).

In another data set the target is T3, Human EphA3 (Homo sapiens, UniProt P29320).
T3 construct: purchased R&D Systems 644-A3
T3 sequence (P29320 with tags, fused parts or gaps limits assumed): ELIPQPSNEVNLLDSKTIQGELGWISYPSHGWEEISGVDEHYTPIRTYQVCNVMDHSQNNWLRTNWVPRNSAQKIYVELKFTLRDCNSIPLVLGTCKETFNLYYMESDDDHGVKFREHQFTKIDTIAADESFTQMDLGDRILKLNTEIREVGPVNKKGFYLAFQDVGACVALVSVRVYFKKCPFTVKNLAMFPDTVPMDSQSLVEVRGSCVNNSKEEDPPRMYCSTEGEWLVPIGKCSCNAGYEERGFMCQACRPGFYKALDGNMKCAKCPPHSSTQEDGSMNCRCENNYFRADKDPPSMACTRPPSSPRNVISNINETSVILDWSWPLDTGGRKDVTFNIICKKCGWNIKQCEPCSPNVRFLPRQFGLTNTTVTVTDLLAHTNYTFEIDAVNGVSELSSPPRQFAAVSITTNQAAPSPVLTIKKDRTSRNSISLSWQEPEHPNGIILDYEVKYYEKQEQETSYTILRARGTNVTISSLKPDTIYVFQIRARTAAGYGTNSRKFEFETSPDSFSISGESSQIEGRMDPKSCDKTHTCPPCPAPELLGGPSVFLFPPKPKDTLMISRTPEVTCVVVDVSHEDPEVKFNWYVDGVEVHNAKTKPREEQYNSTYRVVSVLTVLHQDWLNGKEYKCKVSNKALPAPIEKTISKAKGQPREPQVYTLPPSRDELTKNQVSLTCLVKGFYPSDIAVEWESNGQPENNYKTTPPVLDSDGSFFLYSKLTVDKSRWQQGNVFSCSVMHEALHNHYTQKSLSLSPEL
The experiment in a line: SPR homologue panel, EphA3. The conditions noted are these: human EphA3, n=1; read-out: KD, no binding up to. The procedure:
as §1, §2, §3

Molecules are shown by their SMILES. Numbered stars: 1 amine (or outer) side, 2 acyl side, 3 side chain; on linkers, the order of the positions; unused ones are H or OH. Bridge positions count the residues as written; N and C are the ends. Square brackets hold non-standard residues; d marks the D form. Peptide text beside a SMILES is read from it. * marks the point of attachment. DOTA = O=C(O)CN1CCN(CC(=O)O)CCN(CC(=O)*)CCN(CC(=O)O)CC1; TATA = O=C(CC[*:1])N1CN(C(=O)CC[*:2])CN(C(=O)CC[*:3])C1; Hyp = O=C(O)[C@@H]1C[C@@H](O)CN1; hArg = N=C(N)NCCCC[C@H](N)C(=O)O; Cba = N[C@@H](CC1CCC1)C(=O)O; βAla = NCCC(=O)O; Sar = CNCC(=O)O

Regarding `CC(C)C[C@@H]1NC(=O)[C@@H]2CSCCC(=O)N3CN(CN(C3)C(=O)CCSC[C@H](NC(=O)[C@H](CC(=O)O)NC(=O)[C@H](CCCCNC(=N)N)NC(=O)[C@H](C)NC(=O)CN(C)C(=O)CN(C)C(=O)CN(C)C(=O)CN(C)C(=O)CN(C)C(=O)CN(C)C(=O)CN(C)C(=O)CN(C)C(=O)CN(C)C(=O)CN(C)C(=O)CCNC(=O)CN3CCN(CC(=O)O)CCN(CC(=O)O)CCN(CC(=O)O)CC3)C(=O)N3C[C@H](O)C[C@H]3C(=O)N[C@@H](CC3CCC3)C(=O)N[C@@H](C(C)C)C(=O)N[C@@H](CC(N)=O)C(=O)N3CCC[C@H]3C(=O)N[C@@H](CC(C)C)C(=O)N2)C(=O)CCSC[C@@H](C(N)=O)NC(=O)[C@H](CCCCNC(=N)N)NC(=O)[C@H](Cc2c[nH]c3ccccc23)NC(=O)[C@@H](CC(=O)O)NC(=O)[C@@H]2CCCN2C(=O)[C@H](Cc2c[nH]cn2)NC1=O` [BCY18469, [-DOTA]-[B-Ala]-[Sar10]-Ala-[HArg]-Asp-Cys-[HyP]-[Cba]-Val-Asn-Pro-Leu-Cys-Leu-His-Pro-[dAsp]-Trp-[HArg]-Cys-CONH2] ({DOTA-βAla}-[Sar][Sar][Sar][Sar][Sar][Sar][Sar][Sar][Sar][Sar]A[hArg]DC[Hyp][Cba]VNPLCLHP[dD]W[hArg]C-NH2; linker 14-21-28 via TATA), the Kd on Human EphA6, on Human EphA7 and at Human EphA3 was more than 5 µM throughout. The fraction unbound (commonly the share of the substance not bound to proteins or other matrix) at 15 min in “in vitro” (human, Plasma protein binding (% bound peptide)) was 0.567; in “in vitro” (mouse) it was 0.489.
